In US7462615B2, “Inhibitors of cysteine proteases, the pharmaceutical compositions thereof and their therapeutic applications” (Hybrigenics SA, priority 2005, dated 2008):
Like-named read-outs stand apart in the source and are kept apart here.

Columns and labels:
[1] = tested on: PC-3 prostate cancer cells; experiment: PC3 Cell Viability and Proliferation Assay; assay type: cell-based; conditions: MTS, mean of three independent experiments, read-out: PC3 GI50 D3
Description: PC-3 prostate cancer cells were obtained from ATCC, and maintained in F-12K medium containing 7% FBS and 1% penicillin/streptomycin. Cells were incubated at 37° C. in a humidified atmosphere containing 5% CO2.
(§1) Cell viability was assayed using the MTS technique in 96-well culture plates (CellTiter 96® Aqueous Non-Radioactive Cell Proliferation Assay, Promega) according to the manufacturer's instructions. MTS (3-(4,5-dimethyl-thiazol-2-yl)-5-(3-carboxymethoxyphenyl)-2-(4-sulfophenyl)-2H-tetrazolium) is a MTT-derived tetrazolium that is reduced in metabolically active cells into a soluble, cell-permeant formazan. The amount of formazan, detected by its absorbance at 492 nm is proportional to the number of living, metabolically active cells.
(§2) 2×10^3 PC3 cells were seeded per well. 24 hours later, the medium was changed and the cells treated in triplicate with the following concentrations of each compound: 10 μM-3.33 μM-1.11 μM-370 nM-123 nM-41 nM-14 nM and 5 nM. The compounds were diluted in 100% DMSO, whose final concentration on cells was kept at 0.5%.
(§3) Cells were incubated with the compounds for 72 hours, and their viability then assayed by the addition of MTS for 2 hours. Absorbance at 492 nm was measured directly from the 96-well culture plates. GI50 (Growth Inhibition 50) concentrations for each compound were calculated using a sigmoidal variable slope fit (Prism 4.0, Graphpad Softwares). Values represent mean of three independent experiments.

[2] = tested on: HCT116 colon cancer cells; experiment: HCT116 Cell Viability and Proliferation Assay; assay type: cell-based; conditions: MTS, mean of three independent experiments, read-out: HCT116 GI50 D3
Description: HCT116 colon cancer cells were obtained from ATCC (American Type Culture Collection), and maintained in Mc Coy's 5A medium containing 10% FBS, 3 mM glutamine and 1% penicillin/streptomycin. Cells were incubated at 37° C. in a humidified atmosphere containing 5% CO2.
as §1, with “(3-(4,5-dimethylthiazol-2-yl)-5(3-carboxymethoxyphenyl)-2-(4-sulfophenyl)-2H-tetra-zolium)” for “(3-(4,5-dimethyl-thiazol-2-yl)-5-(3-carboxymethoxyphenyl)-2-(4-sulfophenyl)-2H-tetrazolium)”
as §2, with “10^3 HCT116” for “2×10^3 PC3”
as §3

USP7 = molecular target: T1, USP7 (Homo sapiens, UniProt Q93009); experiment: USP7 Activity Assay; assay type: biochemical; conditions: 400 nM Ub-AMC; 152 pM enzyme; pre-incubated 30 minutes at 25° C., 60 minutes at 37° C.; sigmoidal fit; read-out: USP 7 (Inhibition of cysteine protease activities)
T1 construct: His tag (from vector pFastBac-HT) (N); made in house; host or cells: Sf9 or High Five insect cells (baculovirus)
T1 sequence (Q93009 whole entry): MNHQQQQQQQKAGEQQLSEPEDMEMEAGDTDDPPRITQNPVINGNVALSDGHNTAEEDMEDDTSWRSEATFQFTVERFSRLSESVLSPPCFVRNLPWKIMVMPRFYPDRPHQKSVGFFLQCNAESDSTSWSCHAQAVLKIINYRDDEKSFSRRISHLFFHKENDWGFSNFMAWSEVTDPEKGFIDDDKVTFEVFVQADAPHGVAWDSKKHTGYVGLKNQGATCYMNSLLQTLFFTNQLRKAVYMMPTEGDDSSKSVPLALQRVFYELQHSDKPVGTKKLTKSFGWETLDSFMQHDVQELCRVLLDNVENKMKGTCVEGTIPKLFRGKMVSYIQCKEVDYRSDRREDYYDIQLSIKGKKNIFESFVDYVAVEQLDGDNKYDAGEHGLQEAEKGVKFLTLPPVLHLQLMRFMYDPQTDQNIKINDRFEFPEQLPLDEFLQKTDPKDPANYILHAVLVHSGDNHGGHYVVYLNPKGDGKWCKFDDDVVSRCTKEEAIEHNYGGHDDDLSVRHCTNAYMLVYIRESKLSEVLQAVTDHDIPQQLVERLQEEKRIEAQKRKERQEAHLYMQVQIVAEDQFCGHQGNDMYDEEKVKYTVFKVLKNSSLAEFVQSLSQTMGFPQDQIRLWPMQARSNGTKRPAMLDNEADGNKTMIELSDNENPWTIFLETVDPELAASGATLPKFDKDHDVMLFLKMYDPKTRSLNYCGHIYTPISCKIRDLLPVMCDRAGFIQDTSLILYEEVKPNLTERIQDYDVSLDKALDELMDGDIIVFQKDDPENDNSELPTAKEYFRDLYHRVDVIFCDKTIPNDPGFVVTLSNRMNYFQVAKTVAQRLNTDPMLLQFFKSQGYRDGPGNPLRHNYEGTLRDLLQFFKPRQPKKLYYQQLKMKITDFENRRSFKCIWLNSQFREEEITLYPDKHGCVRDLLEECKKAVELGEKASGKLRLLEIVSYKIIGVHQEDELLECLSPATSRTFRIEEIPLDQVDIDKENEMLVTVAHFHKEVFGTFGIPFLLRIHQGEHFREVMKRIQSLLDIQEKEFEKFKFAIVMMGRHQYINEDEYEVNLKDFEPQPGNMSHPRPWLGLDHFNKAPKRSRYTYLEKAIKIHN
From the text: The cDNA encoding USP7 was obtained by PCR amplification from placenta mRNA. USP7 cDNA was subcloned by PCR into a baculovirus expression vector (pFastBac-HT; Invitrogen). A cDNA encoding a mutated USP7 was generated by mutagenic PCR. The corresponding protein encodes a cysteine to alanine substitution at residue 223. The sequences were ascertained by sequencing of the entire open reading frame. Bacmids encoding USP7 were generated following DH10bac transposition. The corresponding bacmids were transfected into insect cells (Sf9). Viruses were recovered from culture supernatant and amplified twice. Insect cells (Sf9 or High Five; Invitrogen) were infected for 72 hours. Total cell lysates were harvested and lyzed in lysis buffer (Tris HCl 50 mM pH7.6; 0.75% NP40; 500 mM NaCl; 10% glycerol; 1 mM DTT; 10 mM imidazole; Protease Inhibitor. Cocktail; AEBSF
20 μg.ml^−1; Aprotinin 10 μg.ml^−1). Proteins were affinity purified on metal affinity resins (Talon Metal affinity resin; BD Biosciences). Bound materials were extensively washed in wash buffer (50 mM Sodium Phosphate pH7.0; 300 mM NaCl; 10 mM imidazole; 0.5% Triton X-100; 10% glycerol) and eluted from the resin in 250 mM imidazole-containing wash buffer. Proteins were dialyzed in dialysis buffer (Tris HCl pH 7.6 20 mM; NaCl 200 mM; DTT 1 mM; EDTA 1 mM; 10% Glycerol). Proteins purifications were analyzed on 4-12% NuPAGE (Invitrogen).
USP7 was diluted in USP buffer (50 mM Tris HCl; 0.5 mM EDTA; 5 mM DTT; 0.01% Triton X-100; Bovine Serum Albumin 0.05 mg.ml^−1 pH7.6). Compounds stocks (100 mM) were stored at −20° C. in DMSO. Compounds were tested at the following final concentrations: 100 μM; 33.3 μM; 11.1 μM; 3.7 μM; 1.23 μM; 412 nM; 137 nM; 45.7 nM; 15.2 nM; 5 nM.
Reactions were performed as duplicates in Black LJL 96 well plates (HE microplates; Molecular Devices; 20 μl final reaction volume). The substrate concentration for USP7 was 400 nM Ub-AMC (Chem. Biol., 2003, 10, p. 837-846) (Boston Biochem). The concentrations of the enzyme (USP7) in specificity assays was 152 pM. The concentrations were determined in order to perform specificity assays under initial velocities at fixed substrate concentration. Compounds were pre-incubated with enzymes for 30 minutes at 25° C. Reactions were initiated by addition of substrate to the plates containing the enzymes (+/−compounds) diluted in assay buffer. Reactions were incubated for 60 minutes at 37° C. Reactions were stopped by adding acetic acid (100 mM final). Readings were performed on a Pherastar Fluorescent Reader (BMG). λ Emission 380 nm; λ Excitation=460 nm. Data (mean values +/−standard deviation) were analyzed as % of control (no compound) and plotted as percentage versus the Log of the compound concentration using GraphPad (Prism). Data were fitted to a sigmoidal model (variable slope).

[3] = Homo sapiens, HCT-116, 72 hours

| Compound | IC50 (USP7) | further results |
| --- | --- | --- |
| 6-(7)-Chloro-1-methyl-2,3,4,10,10a-pentaaza-cyclopenta[b]fluoren-9-one [Example 3/A] | 2800 nM | GI50 ([1]; 72 hours): 994 nM; GI50 ([2]; 72 hours): 361 nM |
| Cc1nnc2nc3c(nn12)C(=O)c1ccccc1-3 [Example 1b/A, 1-Methyl-2,3,4,10,10a-pentaaza-cyclopenta[b]fluoren-9-one] | 16700 nM | – |
| Cc1nnc2nc3c(nn12)-c1ccccc1C3=O [Example 1b/B, 3-Methyl-1,2,3a,4,10-pentaaza-cyclopenta[b]fluoren-9-one] | 550 nM | – |
| Nc1nnc2nc3c(nn12)C(=O)c1ccccc1-3 [Example 1c/A, 1-Amino-2,3,4,10,10a-pentaaza-cyclopenta[b]fluoren-9-one] | 15300 nM | GI50 ([1]; Homo sapiens, PC-3, 72 hours): > 10000 nM |
| Nc1nnc2nc3c(nn12)-c1ccccc1C3=O [Example 1c/B, 3-Amino-1,2,3a,4,10-pentaaza-cyclopenta[b]fluoren-9-one] | 700 nM | – |
| CCc1nnc2nc3c(nn12)C(=O)c1ccccc1-3 [Example 1d/A, 1-Ethyl-2,3,4,10,10a-pentaaza-cyclopenta[b]fluoren-9-one] | 16500 nM | – |
| CCc1nnc2nc3c(nn12)-c1ccccc1C3=O [Example 1d/B, 3-Ethyl-1,2,3a, 4,10-pentaaza-cyclopenta[b]fluoran-9-one] | 225 nM | – |
| CCCc1nnc2nc3c(nn12)-c1ccccc1C3=O [Example 1e/B, 3-Propyl-1,2,3a, 4,10-pentaaza-cyclopenta[b]fluoren-9-one] | 662 nM | – |
| CCCCc1nnc2nc3c(nn12)C(=O)c1ccccc1-3 [Example 1f/A, 1-Butyl-2,3,4,10,10a-pentaaza-cyclopenta[b]fluoren-9-one] | 23000 nM | – |
| CCCCc1nnc2nc3c(nn12)-c1ccccc1C3=O [Example 1f/B, 3-Butyl-1,2,3a,4,10-pentaaza-cyclopenta[b]fluoren-9-one] | 604 nM | – |
| CC(C)Cc1nnc2nc3c(nn12)-c1ccccc1C3=O [Example 1g/B, 3-Isobutyl-1,2,3a,4,10-pentaaza-cyclopenta[b]fluoren-9-one] | 789 nM | – |
| O=C1c2ccccc2-c2nc3nnc(CO)n3nc21 [Example 1h/A, 1-Hydroxymethyl-2,3,4,10,10a-pentaaza-cyclopenta[b]fluoren-9-one] | 9700 nM | – |
| O=C1c2ccccc2-c2nn3c(CO)nnc3nc21 [Example 1h/B] | 1610 nM | – |
| COCc1nnc2nc3c(nn12)-c1ccccc1C3=O [Example 1i/B, 3-Methoxymethyl-1,2,3a, 4,10-pentaaza-cyclopenta[b]fluoren-9-one] | 461 nM | – |
| O=C1c2ccccc2-c2nn3c(C4CC4)nnc3nc21 [Example 1j/B, 3-Cyclopropyl-1,2,3a,4,10-pentaaza-cyclopenta[b]fluoren-9-one] | 207 nM | – |
| O=C1c2ccccc2-c2nc3nnc(Cc4ccccc4)n3nc21 [Example 1k/A, 1-Benzyl-2,3,4,10,10a-pentaaza-cyclopenta[b]fluoren-9-one] | 3300 nM | – |
| O=C1c2ccccc2-c2nn3c(Cc4ccccc4)nnc3nc21 [Example 1k/B, 3-Benzyl-1,2,3a,4,10-pentaaza-cyclopenta[b]fluoren-9-one] | 425 nM | – |
| Cc1nnc2nc3c(nn12)-c1ccc(Cl)cc1C3=O [Example 3/B, 7-Chloro-3-methyl-1,2,3a, 4,10-pentaaza-cyclopenta[b]fluoren-9-one] | 522 nM | – |
| Cn1nc2nc3c(nc2n1)-c1ccccc1C3=O [Example 4a, 2-Methyl-2H-1,2,3,4,10-pentaaza-cyclopenta[b]fluoren-9-one] | 51000 nM | GI50 ([1]; Homo sapiens, PC-3, 72 hours): > 10000 nM; GI50 [2, 3]: > 10000 nM |
| O=C1c2ccccc2-c2nc3nn(Cc4ccccc4)nc3nc21 [Example 4b, 2-Benzyl-2H-1,2,3,4,10-pentaaza-cyclopenta[b]fluoren-9-one] | – | GI50 ([1]; Homo sapiens, PC-3, 72 hours): > 10000 nM; GI50 [2, 3]: > 10000 nM |
